From EPA's ToxRefDB 2

What was measured:
rabbit [1] = details: Sub-acute dermal toxicity, new zealand white, Topical, dose end: 3 week, group: systemic, systemic / pathology gross / lymph node / enlarged + systemic / pathology gross / skin / lesion(s) (nos) + systemic / pathology microscopic…
rat [2] = details: Subchronic oral toxicity in rodents, sprague dawley, Gavage/Intubation, dose end: 90 day, group: systemic
mouse [3] = details: Subchronic oral toxicity in rodents, b6c3f1, Gavage/Intubation, dose end: 13 week, group: systemic
rat [4] = details: Subchronic oral toxicity in rodents, fischer, Gavage/Intubation, dose end: 13 week, group: systemic
dog = details: Chronic toxicity, beagle, Oral, Feed, dose end: 12 month, group: systemic
rat [5] = details: Combined chronic toxicity/carcinogenicity; sprague dawley; Oral; Feed; dose end: 2 year; group: systemic; systemic / in life observation / body weight / body weight + systemic / in life observation / body weight / body weight gain + systemic / …
mouse [6] = details: Carcinogenicity; cd1; Oral; Feed; dose end: 24 month; group: systemic; systemic / hematology / methemoglobin / methemoglobin + systemic / in life observation / body weight / body weight + systemic / in life …
rat [7] = details: Multigenerational reproductive toxicity study, other, Oral, Feed, dose end: 2 generation
rabbit [8] = details: Prenatal developmental toxicity study, new zealand white, Oral, Gavage/Intubation, dose end: 19 GD
rat [9] = details: Multigenerational reproductive toxicity study, sprague dawley, Oral, Feed, dose end: 3 generation
rat [10] = details: Prenatal developmental toxicity study, other, Oral, Feed, dose end: 15 GD
rat [11] = details: Subchronic oral toxicity in rodents, fischer, Gavage/Intubation, dose end: 13 week, group: systemic; remark: listed apart in the source
mouse [12] = details: Subchronic oral toxicity in rodents, b6c3f1, Gavage/Intubation, dose end: 13 week, group: systemic; remark: listed apart in the source
rat [13] = details: Combined chronic toxicity/carcinogenicity, fischer, Oral, Gavage/Intubation, dose end: 2 year, group: systemic
mouse [14] = details: Combined chronic toxicity/carcinogenicity; b6c3f1; Oral; Gavage/Intubation; dose end: 2 year; group: systemic; systemic / pathology microscopic / liver / cytomegaly + systemic / pathology microscopic / liver / hyperplasia + systemic / pathology …
[15] = systemic / clinical chemistry / [other] / [other] + systemic / clinical chemistry / chloride / chloride + systemic / clinical chemistry / …
[16] = systemic / pathology gross / thymus / discolored
[17] = systemic / hematology / anemia / anemia - normocytic + systemic / hematology / erythrocyte (rbc) count differential / erythrocyte (rbc) + …
[18] = systemic / hematology / methemoglobin / methemoglobin
[19] = systemic / hematology / anemia / anemia - macrocytic + systemic / hematology / erythrocyte (rbc) count differential / erythrocyte (rbc) + …
[20] = systemic / hematology / methemoglobin / methemoglobin + systemic / hematology / sulphemoglobin / sulphemoglobin
[21] = systemic / hematology / methemoglobin / methemoglobin + systemic / hematology / sulphemoglobin / sulphemoglobin + systemic / clinical …
[22] = group: offspring, systemic / in life observation / body weight / offspring (pup) weight + developmental / developmental malformation / diaphragm / hernia + …
[23] = group: parental, systemic / in life observation / body weight / body weight gain + systemic / in life observation / body weight / body weight + systemic / in…
[24] = group: reproductive, reproductive / offspring survival early / birth index / live birth index
[25] = group: developmental, developmental / developmental malformation / bone / [other] + developmental / developmental malformation / bone / hole(s) + developmental / …
[26] = group: maternal, systemic / in life observation / body weight / body weight gain
[27] = group: maternal, systemic / in life observation / body weight / body weight gain + reproductive / reproductive performance / aborted / aborted + systemic / …
[28] = group: offspring, developmental / offspring survival late / viability index / viability index + systemic / in life observation / body weight / offspring (pup…
[29] = group: parental, systemic / in life observation / body weight / body weight + systemic / in life observation / body weight / body weight gain
[30] = group: reproductive, reproductive / reproductive performance / fertility / fertility
[31] = group: developmental, developmental / developmental malformation / bone / bipartite ossification + developmental / developmental malformation / bone / delayed …
[32] = group: maternal, systemic / in life observation / body weight / body weight + systemic / in life observation / food consumption / food consumption + …
[33] = systemic / in life observation / body weight / body weight + systemic / in life observation / clinical signs / labored respiration + …
[34] = systemic / in life observation / body weight / body weight + systemic / organ weight / kidney / absolute + systemic / organ weight / kidney…
[35] = systemic / in life observation / body weight / body weight gain + systemic / in life observation / clinical signs / prostration + systemic…
[36] = systemic / in life observation / body weight / body weight gain + systemic / organ weight / liver / absolute + systemic / organ weight / …
[37] = systemic / pathology microscopic / kidney / pigmentation + systemic / pathology microscopic / nose / pigmentation

SMILES: Cc1ccc(O)c(C)c1 [2,4-Dimethylphenol]
- LEL (rabbit [1]): 1200 mg/kg/day
- LOAEL (rabbit [1]): > 2400 mg/kg/day
- NEL (rabbit [1]): < 1200 mg/kg/day
- NOAEL (rabbit [1]): ≥ 2400 mg/kg/day
- LOAEL (rat [2]; [15]): > 540 mg/kg/day
- NOAEL (rat [2]; [15]): ≥ 540 mg/kg/day
- LEL (rat [2]; [16]): 60 mg/kg/day
- NEL (rat [2]; [16]): < 60 mg/kg/day

SMILES: Nc1ccccc1Cl [2-Chloroaniline]
- LOAEL (mouse [3]; [17]): 80 mg/kg/day
- NOAEL (mouse [3]; [17]): 40 mg/kg/day
- LEL (mouse [3]; [18]): 10 mg/kg/day
- NEL (mouse [3]; [18]): < 10 mg/kg/day
- LOAEL (rat [4]; [19]): 80 mg/kg/day
- NOAEL (rat [4]; [19]): 40 mg/kg/day
- LEL (rat [4]; [18]): 10 mg/kg/day
- NEL (rat [4]; [18]): < 10 mg/kg/day

SMILES: CON(C)C(=O)Nc1ccc(Cl)c(Cl)c1 [Linuron]
- LEL (dog; [20]): 3.49 mg/kg/day
- LOAEL (dog; [20]): 3.49 mg/kg/day
- NEL (dog; [21]): 0.77 mg/kg/day
- NOAEL (dog; [21]): 0.77 mg/kg/day
- LEL (rat [5]): 5.11 mg/kg/day
- LOAEL (rat [5]): 5.11 mg/kg/day
- NEL (rat [5]): 2.09 mg/kg/day
- NOAEL (rat [5]): 2.09 mg/kg/day
- LEL (mouse [6]): 261 mg/kg/day
- LOAEL (mouse [6]): 261 mg/kg/day
- NEL (mouse [6]): 23 mg/kg/day
- NOAEL (mouse [6]): 23 mg/kg/day
- LEL (rat [7]; group: offspring, systemic / in life observation / body weight / offspring (pup) weight): 7.77 mg/kg/day
- LOAEL (rat [7]; [22]): > 54 mg/kg/day
- NEL (rat [7]; [22]): 0.948 mg/kg/day
- NOAEL (rat [7]; [22]): ≥ 54 mg/kg/day
- LOAEL (rat [7]; group: parental, systemic / in life observation / body weight / body weight gain): 5.83 mg/kg/day
- NEL (rat [7]; [23]): 0.736 mg/kg/day
- NOAEL (rat [7]; [23]): 0.736 mg/kg/day
- LEL (rat [7]; group: parental, systemic / in life observation / body weight / body weight gain + systemic / in life observation / food consumption / food consumption): 5.83 mg/kg/day
- LEL (rat [7]; [24]): 54 mg/kg/day
- LOAEL (rat [7]; [24]): > 54 mg/kg/day
- NEL (rat [7]; [24]): 7.77 mg/kg/day
- NOAEL (rat [7]; [24]): ≥ 54 mg/kg/day
- LEL (rabbit [8]; [25]): 100 mg/kg/day
- LOAEL (rabbit [8]; [25]): 100 mg/kg/day
- NEL (rabbit [8]; [25]): 25 mg/kg/day
- NOAEL (rabbit [8]; [25]): 25 mg/kg/day
- LEL (rabbit [8]; [26]): 25 mg/kg/day
- LOAEL (rabbit [8]; [26]): 25 mg/kg/day
- NEL (rabbit [8]; [27]): 5 mg/kg/day
- NOAEL (rabbit [8]; [27]): 5 mg/kg/day
- LEL (rat [9]; [28]): 44 mg/kg/day
- LOAEL (rat [9]; [28]): 44 mg/kg/day
- NEL (rat [9]; [28]): 9 mg/kg/day
- NOAEL (rat [9]; [28]): 9 mg/kg/day
- LEL (rat [9]; group: parental, systemic / in life observation / body weight / body weight): 9 mg/kg/day
- LOAEL (rat [9]; group: parental, systemic / in life observation / body weight / body weight + systemic / hematology / erythrocyte (rbc) count differential / erythrocyte (rbc…): 10 mg/kg/day
- NEL (rat [9]; [29]): 2 mg/kg/day
- NOAEL (rat [9]; [29]): 2 mg/kg/day
- LEL (rat [9]; [30]): 44 mg/kg/day
- LOAEL (rat [9]; [30]): 44 mg/kg/day
- NEL (rat [9]; [30]): 9 mg/kg/day
- NOAEL (rat [9]; [30]): 9 mg/kg/day
- LEL (rat [10]; [31]): 50 mg/kg/day
- LOAEL (rat [10]; [31]): 50 mg/kg/day
- NEL (rat [10]; [31]): 12 mg/kg/day
- NOAEL (rat [10]; [31]): 12 mg/kg/day
- LOAEL (rat [10]; group: maternal, systemic / in life observation / body weight / body weight + systemic / in life observation / food consumption / food consumption): 50 mg/kg/day
- LEL (rat [10]; [32]): 50 mg/kg/day
- NEL (rat [10]; [32]): 12 mg/kg/day
- NOAEL (rat [10]; [32]): 12 mg/kg/day

SMILES: COc1c(Cl)c(Cl)c(Cl)c(Cl)c1Cl [Pentachloroanisole]
- LOAEL (rat [11]; [33]): > 180 mg/kg/day
- NOAEL (rat [11]; [33]): ≥ 180 mg/kg/day
- LEL (rat [11]; [34]): 40 mg/kg/day
- NEL (rat [11]; [34]): < 40 mg/kg/day
- LOAEL (mouse [12]; [35]): > 180 mg/kg/day
- NOAEL (mouse [12]; [35]): ≥ 180 mg/kg/day
- LEL (mouse [12]; [36]): 40 mg/kg/day
- NEL (mouse [12]; [36]): < 40 mg/kg/day
- LOAEL (rat [13]; systemic / in life observation / body weight / body weight + systemic / pathology microscopic / adrenal gland / hyperplasia): 40 mg/kg/day
- NOAEL (rat [13]; systemic / in life observation / body weight / body weight + systemic / pathology microscopic / adrenal gland / hyperplasia + systemic / …): 20 mg/kg/day
- LEL (rat [13]; [37]): 10 mg/kg/day
- NEL (rat [13]; [37]): < 10 mg/kg/day
- LEL (mouse [14]): 20 mg/kg/day
- LOAEL (mouse [14]): 20 mg/kg/day
- NEL (mouse [14]): < 20 mg/kg/day
- NOAEL (mouse [14]): < 20 mg/kg/day
